The source of these data is PMC2265467 (PLoS Genetics, 2008).

One experiment has as its target ExoS ADPRT activity (Pseudomonas aeruginosa, UniProt G3XDA1). The experiment in a line: biochemical.
The next experiment relates to yeast expressing ExoS. The experiment in a line: yeast growth recovery of yeast expressing ExoS. The note with it: CUP1 promoter; library screened at 50 µM.
The target in a further experiment is ADPRT activity of ExoA (Pseudomonas aeruginosa, UniProt P11439). The experiment in a line: biochemical.
Sequence of ADPRT activity of ExoA (P11439 26-638 limits assumed): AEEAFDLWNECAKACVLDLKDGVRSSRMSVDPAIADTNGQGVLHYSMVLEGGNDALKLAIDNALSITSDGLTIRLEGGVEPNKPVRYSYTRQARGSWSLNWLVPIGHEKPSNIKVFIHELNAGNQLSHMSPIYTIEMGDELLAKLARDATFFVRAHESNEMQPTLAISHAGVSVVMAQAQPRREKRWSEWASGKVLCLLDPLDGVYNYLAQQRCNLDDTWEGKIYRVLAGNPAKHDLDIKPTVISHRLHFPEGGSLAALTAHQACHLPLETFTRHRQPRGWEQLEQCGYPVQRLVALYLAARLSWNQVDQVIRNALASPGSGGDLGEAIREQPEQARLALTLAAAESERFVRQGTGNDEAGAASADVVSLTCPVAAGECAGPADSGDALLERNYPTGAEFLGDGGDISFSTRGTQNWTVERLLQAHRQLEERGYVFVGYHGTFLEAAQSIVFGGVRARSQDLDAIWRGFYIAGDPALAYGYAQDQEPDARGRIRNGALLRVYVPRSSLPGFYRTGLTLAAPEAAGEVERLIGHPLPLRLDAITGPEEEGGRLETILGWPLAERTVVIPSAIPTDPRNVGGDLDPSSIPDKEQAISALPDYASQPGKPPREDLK

Sequence of ExoS ADPRT activity (G3XDA1 whole entry, looked up): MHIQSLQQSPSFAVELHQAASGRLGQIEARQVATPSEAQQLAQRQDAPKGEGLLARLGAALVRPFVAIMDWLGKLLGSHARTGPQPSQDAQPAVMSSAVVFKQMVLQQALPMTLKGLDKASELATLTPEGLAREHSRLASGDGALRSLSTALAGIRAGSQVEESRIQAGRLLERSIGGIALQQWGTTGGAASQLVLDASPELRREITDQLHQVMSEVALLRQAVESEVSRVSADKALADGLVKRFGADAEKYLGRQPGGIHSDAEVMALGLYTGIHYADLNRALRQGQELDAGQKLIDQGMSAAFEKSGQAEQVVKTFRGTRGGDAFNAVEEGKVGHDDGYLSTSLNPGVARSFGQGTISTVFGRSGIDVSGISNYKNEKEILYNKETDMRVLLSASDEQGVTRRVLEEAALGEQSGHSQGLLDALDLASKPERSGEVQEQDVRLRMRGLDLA

Regarding `C=CCOC(=O)C1=C(C)NC(SCC(=O)Nc2nccs2)=C(C#N)C1c1cccs1` (stereo not shown) [4296-1011], the IC50 against ExoS ADPRT activity worked out at 6 µM. Further, in the experiment on yeast expressing ExoS, the “restoration of growth of yeast expressing ExoS (in words)” value (“restoration” below) was “restore yeast growth”. For the molecule `CCc1ccc(NC(=O)N2CC(CC)Oc3ccccc32)cc1` (stereo not shown) [exosin], on ExoS ADPRT activity, affinity was put at a Ki of 33 ± 3 µM and the “mode of inhibition of ExoS ADPRT” value is given as “competitive inhibitor”. The same molecule came in with a half-inhibitory concentration (IC50) against ADPRT activity of ExoA of 17 µM. The “restoration” value with yeast expressing ExoS is given as “restore yeast growth”.

In the case of `CCOC(=O)n1c(=O)oc2cc([N+](=O)[O-])ccc21` [0469-0796], in the experiment with yeast expressing ExoS, the “restoration” value is on record as “restore yeast growth”. Molecule `COc1cc(C)c(C(=O)O)c(O)c1` [Everninic acid] had a half-maximal inhibitory concentration (IC50) against ExoS ADPRT activity of 21 µM. The “restoration” value with yeast expressing ExoS is listed as “restore yeast growth”.

Regarding `COc1cc(O)c(C(=O)/C=C/c2ccccc2)c(OC)c1` [Flavokawain B], in the experiment on yeast expressing ExoS, the “restoration” value is “restore yeast growth”. For the molecule `CCC1CN(C(=O)Nc2ccc(C)cc2)c2ccccc2O1` (stereo not shown) [exosin-5316], half-maximal inhibition on ExoS ADPRT activity (IC50) required 63 µM. Still for that read-out and setting: with `CCC1CN(C(=O)Nc2ccc(C)cc2)c2cc(Cl)ccc2O1` (stereo not shown) [exosin-5138] the figure was 12 µM. At ExoS ADPRT activity, `COc1ccc(-c2cc(=O)c3c(O)cc(O[C@@H]4O[C@H](CO[C@@H]5O[C@@H](C)[C@H](O)[C@@H](O)[C@H]5O)[C@@H](O)[C@H](O)[C@H]4O)cc3o2)cc1O` [Diosmin, reference compound] displayed a half-inhibitory concentration (IC50) of 3 µM. In addition, in the experiment with yeast expressing ExoS, the “restoration” value is given as “restore yeast growth”.

Take `CCC1CN(C(=O)Nc2cccc3c2CCCC3)c2ccccc2O1` (stereo not shown) [exosin-5340]: half-maximal inhibition against ExoS ADPRT activity (IC50) required 129 µM. For the same molecule, the “restoration” value with yeast expressing ExoS was “no protective effect”.
